One may read the IC50 as the concentration at which inhibition is half-maximal.

Test [1] concerns the target T1, BRG-1 (Homo sapiens, UniProt P51532).
T1 construct: made in house; host or cells: High Five insect cells
Briefly: ATPase catalytic activity of BRG-1, ADP-Glo in vitro biochemical assay. Conditions: 30 nM BRG-1, 400 μM ATP, read-out: BRG1 IC50. Summed up:
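Once the ATPase reaction finished, leftover ATP was depleted over 40 minutes at room temperature. Generated ADP was next turned back into ATP during a 60-minute room-temperature step. Luciferase-derived light was then measured.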
(In general: ADP-Glo first removes unused ATP, then detects ADP through luciferase.)

In test [2] the target is T2, BRM (Homo sapiens, UniProt P51531).
T2 construct: made in house; host or cells: High Five insect cells
Nature of the test: ATPase catalytic activity of BRM, ADP-Glo in vitro biochemical assay. As to conditions: for IC50: 30 nM BRM, 400 μM ATP; for Ratio* (BRG1 IC50 (μM) divided by BRM IC50 (μM)): selectivity ratio BRG1 IC50 / BRM IC50. Summed up: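 ADP-Glo luminescence, after depletion of leftover ATP and conversion of ADP, reported the activity. The 1 h room-temperature reaction held 400 μM ATP, 20 nM salmon sperm DNA and 30 nM BRM in 20 mM Tris pH 8, 20 mM MgCl2, 50 mM NaCl, 0.1% Tween-20, 1 mM DTT.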

The mark [3] stands for this setting: ATPase catalytic activity, ADP-Glo.

Where two headings read alike, the source gives them in different places.

T1 sequence (P51532 whole entry): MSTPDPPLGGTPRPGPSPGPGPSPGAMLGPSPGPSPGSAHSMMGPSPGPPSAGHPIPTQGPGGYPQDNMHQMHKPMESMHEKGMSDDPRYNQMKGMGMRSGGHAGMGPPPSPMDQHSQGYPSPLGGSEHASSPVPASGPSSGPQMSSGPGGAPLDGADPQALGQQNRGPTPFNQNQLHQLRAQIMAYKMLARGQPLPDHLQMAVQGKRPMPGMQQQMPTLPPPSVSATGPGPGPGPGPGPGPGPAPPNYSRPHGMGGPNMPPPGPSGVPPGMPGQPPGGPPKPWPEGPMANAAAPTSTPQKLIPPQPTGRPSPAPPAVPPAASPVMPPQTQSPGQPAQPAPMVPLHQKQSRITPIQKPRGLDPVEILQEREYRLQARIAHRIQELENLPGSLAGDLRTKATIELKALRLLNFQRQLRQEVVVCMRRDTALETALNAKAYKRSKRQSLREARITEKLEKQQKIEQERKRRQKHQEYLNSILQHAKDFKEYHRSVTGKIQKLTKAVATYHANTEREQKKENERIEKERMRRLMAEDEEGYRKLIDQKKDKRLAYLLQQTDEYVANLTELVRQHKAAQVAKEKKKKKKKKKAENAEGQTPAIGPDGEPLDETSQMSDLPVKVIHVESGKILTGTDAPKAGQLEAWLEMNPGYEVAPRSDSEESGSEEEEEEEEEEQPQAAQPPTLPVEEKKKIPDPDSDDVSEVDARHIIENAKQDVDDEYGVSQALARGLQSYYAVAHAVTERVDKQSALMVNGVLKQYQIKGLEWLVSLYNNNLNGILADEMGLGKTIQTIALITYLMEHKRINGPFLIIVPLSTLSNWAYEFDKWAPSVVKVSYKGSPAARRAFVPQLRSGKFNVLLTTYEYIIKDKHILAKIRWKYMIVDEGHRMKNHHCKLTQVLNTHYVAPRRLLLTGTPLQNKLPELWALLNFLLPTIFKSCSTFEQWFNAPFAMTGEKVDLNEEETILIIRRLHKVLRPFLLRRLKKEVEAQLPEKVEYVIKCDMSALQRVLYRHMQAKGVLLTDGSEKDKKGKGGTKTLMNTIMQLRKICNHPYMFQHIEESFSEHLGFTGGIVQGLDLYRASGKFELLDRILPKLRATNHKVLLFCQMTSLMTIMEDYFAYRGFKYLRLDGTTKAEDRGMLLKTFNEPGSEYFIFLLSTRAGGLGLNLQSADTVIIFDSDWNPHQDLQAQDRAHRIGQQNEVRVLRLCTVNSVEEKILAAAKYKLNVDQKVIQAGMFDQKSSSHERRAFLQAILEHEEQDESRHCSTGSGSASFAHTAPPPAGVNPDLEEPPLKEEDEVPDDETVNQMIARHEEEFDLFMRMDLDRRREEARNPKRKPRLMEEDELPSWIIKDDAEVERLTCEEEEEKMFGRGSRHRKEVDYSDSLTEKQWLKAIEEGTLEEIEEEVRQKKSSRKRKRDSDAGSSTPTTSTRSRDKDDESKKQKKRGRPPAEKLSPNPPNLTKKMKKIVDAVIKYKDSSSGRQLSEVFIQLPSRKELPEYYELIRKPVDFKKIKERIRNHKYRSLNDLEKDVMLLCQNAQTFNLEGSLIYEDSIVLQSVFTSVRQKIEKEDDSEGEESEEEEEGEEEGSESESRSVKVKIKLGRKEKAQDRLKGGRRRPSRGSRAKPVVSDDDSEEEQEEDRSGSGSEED
T2 sequence (P51531 whole entry): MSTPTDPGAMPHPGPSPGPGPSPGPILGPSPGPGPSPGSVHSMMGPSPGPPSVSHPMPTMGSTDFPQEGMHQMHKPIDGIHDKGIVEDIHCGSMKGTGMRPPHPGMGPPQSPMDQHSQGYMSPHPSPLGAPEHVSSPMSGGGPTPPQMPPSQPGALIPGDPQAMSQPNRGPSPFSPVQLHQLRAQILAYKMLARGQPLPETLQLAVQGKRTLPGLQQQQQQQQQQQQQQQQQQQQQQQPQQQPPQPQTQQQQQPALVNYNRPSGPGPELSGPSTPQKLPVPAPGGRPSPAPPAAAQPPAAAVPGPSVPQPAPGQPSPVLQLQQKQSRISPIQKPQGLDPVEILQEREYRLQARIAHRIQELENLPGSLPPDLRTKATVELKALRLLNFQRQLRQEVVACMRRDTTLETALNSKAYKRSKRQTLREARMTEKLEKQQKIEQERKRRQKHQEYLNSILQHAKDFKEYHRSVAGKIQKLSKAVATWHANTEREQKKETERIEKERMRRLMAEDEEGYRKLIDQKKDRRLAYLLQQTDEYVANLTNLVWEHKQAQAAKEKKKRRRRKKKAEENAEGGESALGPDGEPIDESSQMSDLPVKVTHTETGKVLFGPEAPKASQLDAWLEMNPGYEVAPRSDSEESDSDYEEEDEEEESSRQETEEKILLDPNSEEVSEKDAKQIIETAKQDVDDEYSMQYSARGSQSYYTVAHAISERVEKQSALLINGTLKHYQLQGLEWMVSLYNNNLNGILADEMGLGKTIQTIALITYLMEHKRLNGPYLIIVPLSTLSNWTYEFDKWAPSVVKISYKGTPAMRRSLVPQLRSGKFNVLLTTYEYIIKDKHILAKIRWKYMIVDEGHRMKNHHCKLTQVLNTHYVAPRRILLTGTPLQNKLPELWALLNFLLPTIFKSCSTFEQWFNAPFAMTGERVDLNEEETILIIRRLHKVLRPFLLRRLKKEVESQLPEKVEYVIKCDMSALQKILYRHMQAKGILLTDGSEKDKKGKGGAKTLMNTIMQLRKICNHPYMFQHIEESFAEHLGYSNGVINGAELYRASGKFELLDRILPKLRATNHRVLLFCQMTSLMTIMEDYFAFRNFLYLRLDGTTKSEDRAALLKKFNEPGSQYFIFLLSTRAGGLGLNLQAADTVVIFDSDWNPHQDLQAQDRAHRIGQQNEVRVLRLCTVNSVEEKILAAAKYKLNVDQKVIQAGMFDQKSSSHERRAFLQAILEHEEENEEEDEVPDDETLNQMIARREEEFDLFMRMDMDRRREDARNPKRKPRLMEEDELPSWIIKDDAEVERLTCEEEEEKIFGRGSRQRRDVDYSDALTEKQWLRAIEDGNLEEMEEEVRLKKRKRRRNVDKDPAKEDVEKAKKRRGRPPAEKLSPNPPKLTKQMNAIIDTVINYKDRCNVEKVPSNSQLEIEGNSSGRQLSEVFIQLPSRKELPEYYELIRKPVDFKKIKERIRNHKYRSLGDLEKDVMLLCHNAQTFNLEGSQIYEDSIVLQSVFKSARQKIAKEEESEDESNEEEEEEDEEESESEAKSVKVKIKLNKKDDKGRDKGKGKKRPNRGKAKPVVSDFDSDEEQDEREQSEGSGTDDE

In the case of `CO[C@H]1C[C@@H](c2cccc(-c3ccc4cnc(CNC(=O)c5ccc6c(c5)S(=O)(=O)CCOC6)cc4n3)n2)C1` [Compound 113], the IC50 in test [1] (ADP-Glo ATPase assay) turned out to be 583 nM; in test [2] (ADP-Glo ATPase assay), 59.5 nM. In addition, in test [2], the “Ratio* (BRG1 IC50 (μM) divided by BRM IC50 (μM))” value amounted to 9.79.
In the same order, the values of `C[C@H]1CN(c2cccc(-c3ccc4cnc(CNC(=O)c5ccc6c(c5)S(=O)(=O)CCOC6)cc4n3)n2)C[C@H](C)O1` [Compound 216] are 93.7 nM, 10.9 nM and 8.63.
In the same order, the values of `COc1nn([C@H]2C[C@H](F)C2)cc1-c1ccc2cnc(CNC(=O)c3ccc4c(c3)S(=O)(=O)CCOC4)cc2n1` [Compound 152] are 2140 nM, 136 nM and 15.77.
Turning to `O=C(NCc1cc2nc(N3CCCc4cc(N5CCC5)cnc43)ccc2cn1)c1ccc2c(c1)S(=O)(=O)CCOC2` [Compound 666], the IC50 amounted to 268 nM in test [1] (setting [3]) and 24.2 nM in test [2] (setting [3]). Also, the “Ratio*” value in test [2] (ratio of BRG1 IC50 to BRM IC50) was determined as 11.06.
In the same order, the values of `O=C(NCc1cc2nc(-c3cccc4c3CC3COCCN43)ccc2cn1)c1ccc2c(c1)S(=O)(=O)CCOC2` (stereo not drawn) [Compound 421] are 828 nM, 56.8 nM and 14.57.
For the molecule `COc1nc(-c2ccc3cnc(CNC(=O)c4ccc5c(c4)S(=O)(=O)[C@@H](C)COC5)cc3n2)ccc1C(F)F` [Compound 519], the IC50 in test [1] (setting [3]) turned out to be 144 nM; in test [2] (setting [3]), 13.3 nM. For the same molecule, the “Ratio*” value in test [2] (ratio of BRG1 IC50 to BRM IC50) was 10.89.
As to `O=C(NCc1cc2nc(-c3ccc4c(n3)C(F)(F)CC4)ccc2cn1)c1ccc2c(c1)S(=O)(=O)CCOC2` [Compound 678], the IC50 stood at 549 nM in test [1] (setting [3]) and 54.5 nM in test [2] (setting [3]). Also, in test [2] (ratio of BRG1 IC50 to BRM IC50), the “Ratio*” value is 10.07.
For the molecule `COc1cc2c(cn1)CCCN2c1ccc2cnc(CNC(=O)c3ccc4c(c3)S(=O)(=O)CCOC4)cc2n1` [Compound 768], the IC50 in test [1] (ADP-Glo ATPase assay) was 126 nM; in test [2] (ADP-Glo ATPase assay), 10.7 nM. The “Ratio*” value in test [2] (ratio BRG1 IC50 / BRM IC50) was found to be 11.76.
On to `CCN(c1cccc(-c2ccc3cnc(CNC(=O)c4cc(F)c5c(c4)S(=O)(=O)CCOC5)cc3n2)n1)C1CC1` [Compound 338], for which the IC50 in test [1] (setting [3]) stood at 219 nM; in test [2] (setting [3]), 20.1 nM. In test [2] (ratio of BRG1 IC50 to BRM IC50), the “Ratio*” value was determined as 10.88.
With `O=C(NCc1cc2cc(N3CCOc4cc(C5CC5)cnc43)cnc2cn1)c1ccc2c(c1)S(=O)(=O)CCOC2` [Compound 801], the results for the concentration for half-maximal inhibition (IC50) in test [1] (ADP-Glo ATPase assay) and in test [2] (ADP-Glo ATPase assay) were 1440 nM and 111 nM, respectively. The “Ratio*” value in test [2] (ratio BRG1 IC50 / BRM IC50) is on record as 13.00.
In the same order, the values of `O=C(NCc1cc2nc(N3CCOc4cc(C5(C(F)F)CC5)cnc43)ccc2cn1)c1ccc2c(c1)S(=O)(=O)CCOC2` [Compound 847] are 376 nM, 19.4 nM and 19.41.
Consider `CC(c1cccc(-c2ccc3cnc(CNC(=O)c4ccc5c(c4)S(=O)(=O)CCOC5)cc3n2)n1)C(F)F` (stereo not drawn) [Compound 203], for which the IC50 worked out at 1580 nM in test [1] (ADP-Glo ATPase assay) and 154 nM in test [2] (ADP-Glo ATPase assay). In test [2], the “Ratio* (BRG1 IC50 (μM) divided by BRM IC50 (μM))” value is listed as 10.23.
Take `COCCOc1ccc2c(c1)N(c1ccc3cnc(CNC(=O)c4ccc5c(c4)S(=O)(=O)CCOC5)cc3n1)CCC2` [Compound 586]: the figures for the IC50 in test [1] (setting [3]) and in test [2] (setting [3]) were 81.9 nM and 5.5 nM, respectively. In test [2] (ratio of BRG1 IC50 to BRM IC50), the “Ratio*” value was 14.77.
In the case of `C[C@@H]1CN(c2cccc(-c3ccc4cnc(CNC(=O)c5ccc6c(c5)S(=O)(=O)CCOC6)cc4n3)n2)C[C@H](C)O1` [Compound 282], the IC50 in test [1] (ADP-Glo ATPase assay) was found to be 19.3 nM; in test [2] (ADP-Glo ATPase assay) it was 4.2 nM. Also, in test [2], the “Ratio* (BRG1 IC50 (μM) divided by BRM IC50 (μM))” value is listed as 4.64.
Regarding `COC[C@H]1C[C@@H]1c1cccc(-c2ccc3cnc(CNC(=O)c4ccc5c(c4)S(=O)(=O)CCOC5)cc3n2)n1` [Compound 369], the IC50 in test [1] (setting [3]) worked out at 416 nM; in test [2] (setting [3]), 36.1 nM. The “Ratio*” value in test [2] (ratio of BRG1 IC50 to BRM IC50) was 11.52.
As for `O=C1CS(=O)(=O)c2cc(C(=O)NCc3cc4nc(-c5cccc(C6CC6)c5)ccc4cn3)ccc2CN1` [Compound 188], the concentration for half-maximal inhibition (IC50) stood at 5000 nM in test [1] (ADP-Glo ATPase assay) and 287 nM in test [2] (ADP-Glo ATPase assay). For the same molecule, in test [2], the “Ratio* (BRG1 IC50 (μM) divided by BRM IC50 (μM))” value was determined as 17.42.
As to `COCCc1ccc(C(=O)NCc2cc3nc(-c4cncc(C5CC5)n4)ccc3cn2)cc1S(C)(=O)=O` [Compound 207], the IC50 stood at 5000 nM in test [1] (ADP-Glo ATPase assay) and 407 nM in test [2] (ADP-Glo ATPase assay). Also, the “Ratio* (BRG1 IC50 (μM) divided by BRM IC50 (μM))” value in test [2] came out at 12.29.
As to `C[C@@H]1CN(c2cccc(-c3ccc4cnc(CNC(=O)c5ccc6c(c5)S(=O)(=O)[C@@H](C)CO6)cc4n3)n2)C[C@H](C)O1` [Compound 687], the values for the IC50 in test [1] (setting [3]) and in test [2] (setting [3]) were 360 nM and 19.7 nM, respectively. In addition, the “Ratio*” value in test [2] (ratio of BRG1 IC50 to BRM IC50) was found to be 18.34.

The values above are taken from patent publication US20230416248A1, “COMPOUNDS AND USES THEREOF” (Foghorn Therapeutics Inc., priority 2020, published 2023).
